The test system of series [1] is Colon 26. Put plainly: Cytotoxicity against mouse Colon 26 cells assessed as cell viability at 1 to 10 uM after 24 hrs by WST-8 assay. In kind it is cell-based. The conditions noted are these: colon 26, 24 h. In general terms: Tetrazolium dyes change colour on reduction, which living cells bring about.
Series [2] relates to Serum. Put plainly: Biodistribution in BALB/c mouse serum allografted with mouse Colon 26 cells at 10 umol/kg, iv measured at 24 hrs by spectrofluorometric analysis. The class given is ADME, organism-based. The conditions noted are these: in vivo.
A further series concerns Zone of skin. Put plainly: Biodistribution in BALB/c mouse skin allografted with mouse Colon 26 cells at 10 umol/kg, iv measured at 24 hrs by spectrofluorometric analysis. The class given is ADME, organism-based. The conditions noted are these: in vivo.
The test system of another series is Muscle tissue. The series can be described thus: Biodistribution in BALB/c mouse muscle allografted with mouse Colon 26 cells at 10 umol/kg, iv measured at 24 hrs by spectrofluorometric analysis. In kind it is ADME, organism-based. The conditions noted are these: in vivo.
For another series, the system named is Brain. Put plainly: Biodistribution in BALB/c mouse brain allografted with mouse Colon 26 cells at 10 umol/kg, iv measured at 24 hrs by spectrofluorometric analysis. The class given is ADME, organism-based. To be noted: in vivo.
In a further series the test system is Lung. The series can be described thus: Biodistribution in BALB/c mouse lung allografted with mouse Colon 26 cells at 10 umol/kg, iv measured at 24 hrs by spectrofluorometric analysis. In kind it is ADME, organism-based. The conditions noted are these: in vivo.
The next series relates to Spleen. The series can be described thus: Biodistribution in BALB/c mouse spleen allografted with mouse Colon 26 cells at 10 umol/kg, iv measured at 24 hrs by spectrofluorometric analysis. In kind it is ADME, organism-based. To be noted: in vivo.
In the next series the test system is Kidney. Put plainly: Biodistribution in BALB/c mouse kidney allografted with mouse Colon 26 cells at 10 umol/kg, iv measured at 24 hrs by spectrofluorometric analysis. In kind it is ADME, organism-based. To be noted: in vivo.
Series [3] deals with Liver. Put plainly: Biodistribution in BALB/c mouse liver allografted with mouse Colon 26 cells at 10 umol/kg, iv measured at 24 hrs by spectrofluorometric analysis. The class given is ADME, organism-based. To be noted: in vivo.
Series [4] deals with Tumour. Put plainly: Biodistribution in tumor of BALB/c mouse allografted with mouse Colon 26 cells at 10 umol/kg, iv measured at 12 hrs by spectrofluorometric analysis. The class given is ADME, organism-based. The conditions noted are these: in vivo.
Series [5] in a line: Solubility of the compound in water. In kind it is physicochemical.
The test system of series [6] is Serum. The series can be described thus: Biodistribution in BALB/c mouse serum allografted with mouse Colon 26 cells at 10 umol/kg, iv measured at 3 hrs by spectrofluorometric analysis. The class given is ADME, organism-based. The conditions noted are these: in vivo.
The subject of series [7] is Serum. Put plainly: Biodistribution in BALB/c mouse serum allografted with mouse Colon 26 cells at 10 umol/kg, iv measured at 1 hr by spectrofluorometric analysis. The class given is ADME, organism-based. To be noted: in vivo.
Series [8] has as its system Serum. The series can be described thus: Biodistribution in BALB/c mouse serum allografted with mouse Colon 26 cells at 10 umol/kg, iv measured at 6 to 12 hrs by spectrofluorometric analysis. In kind it is ADME, organism-based. To be noted: in vivo.
In series [9] the test system is Liver. Put plainly: Biodistribution in BALB/c mouse liver allografted with mouse Colon 26 cells at 10 umol/kg, iv measured at 1 to 12 hrs by spectrofluorometric analysis. The class given is ADME, organism-based. To be noted: in vivo.
The test system of series [10] is Tumour. Put plainly: Biodistribution in tumor of BALB/c mouse allografted with mouse Colon 26 cells at 10 umol/kg, iv measured at 3 hrs by spectrofluorometric analysis. The class given is ADME, organism-based. The conditions noted are these: in vivo.
Series [11] concerns Colon 26. The series can be described thus: Antitumor activity against mouse Colon 26 cells allografted in BALB/c mouse assessed as tumor growth inhibition at 10 umol/kg, iv pretreated for 3 hrs followed by light-emitting diode irradiation at 660 nm wavelength measured after 3 to 7 days by photodynamic therapy. The class given is functional, organism-based. To be noted: tested as the 10B-labelled form.

The source made the active and inactive calls. No cut-off for these calls is given here.

Data on three compounds can be found in ChEMBL document CHEMBL3120146, “Synthesis and biological evaluation of new boron-containing chlorin derivatives as agents for both photodynamic therapy and boron neutron capture therapy of cancer” (Bioorg Med Chem Lett, 2014).

Regarding `C=Cc1c(C)c2cc3nc(cc4[nH]c(cc5nc(cc1[nH]2)C(C)(O)/C5=C\C=N\OCCCNC(=O)/C=C/c1ccc([10B](O)O)cc1)c(C)c4CCC(=O)N(CC(=O)[O-])CC(=O)[O-])C(CCC(=O)N(CC(=O)[O-])CC(=O)[O-])=C3C.[Na+].[Na+].[Na+].[Na+]` (configuration not stated), the Activity entry in the series on Colon 26 [1] was “Non-toxic”. Moreover, the Drug uptake result was “Not Active” in the series on Serum [2]; “Active” in the series with Zone of skin; “Active” with Muscle tissue; “Active” in the series on Brain; “Active” in the series with Lung; “Active” with Spleen. Further, the values for the Drug uptake entry in the series on Kidney, with Liver [3] and in the series with Tumour [4] were “Active”, “Active” and 0.21 pmol/mg, respectively. Further, the solubility (in general, the dissolved amount per volume that the medium holds) in series [5] is 0.1 mg/mL.
For the compound `C=Cc1c(C)c2cc3nc(cc4[nH]c(cc5nc(cc1[nH]2)C(C)(O)/C5=C\C=N\OCC)c(C)c4CCC(=O)NC(Cc1ccc([10B](O)O)cc1)C(=O)[O-])C(CCC(=O)NC(Cc1ccc([10B](O)O)cc1)C(=O)[O-])=C3C.[Na+].[Na+]` (configuration not stated), in the series on Colon 26 [1], the Activity result is on record as “Non-toxic”. Besides, the Drug uptake result in the series with Serum [2] is recorded as “Not Active”; in the series with Zone of skin, “Active”; with Muscle tissue it was “Active”; with Brain, “Active”; with Lung, “Active”; with Spleen, “Active”. For the same compound, the Drug uptake result in the series with Kidney is on record as “Active”; in the series on Serum [6], 32.2 pmol/mg; in the series with Serum [7], 7.6 pmol/mg; with Serum [8], “Active”; with Liver [3], “Active”; with Liver [9] it was “Active”. In addition, the Drug uptake in the series on Tumour [10] is recorded as 0.27 pmol/mg. Also, in [5], the solubility is 0.1 mg/mL.
As to `C=Cc1c(C)c2cc3nc(cc4[nH]c(cc5nc(cc1[nH]2)C(C)(O)/C5=C\C=N\OCC)c(C)c4CCC(=O)NC(Cc1ccc(B(O)O)cc1)C(=O)O)C(CCC(=O)NC(Cc1ccc(B(O)O)cc1)C(=O)O)=C3C` (configuration not stated), in the series with Colon 26 [11], the TGI entry is “Active”.
